Experimental data taken from patent US6596712B2, “Treatment of carcinomas using squalamine in combination with other anti-cancer agents or modalities” (Genaera Corporation, priority 1996, dated 2003).

Legend:
[1] = molecular target: T1, rabbit NHE2 (Oryctolagus cuniculus, UniProt P50482); experiment: NHE activity, rabbit NHE2; type: cell-based; settings: similar tests
T1 construct: expressed in transfected cells

[2] = tested on: NHE; experiment: Direct addition to PS 120 fibroblasts during measurement of exchanger activity; type: cell-based; settings: no pretreatment
From the text: Direct addition of squalamine to PS 120 fibroblasts during measurement of the exchanger activity had no effect.

[3] = tested on: tumor induced capillary formation in rabbit cornea; experiment: Rabbit corneal micropocket assay (VX2 carcinoma stimulus); type: in vivo; settings: for reduction of Angiogenesis Index (AI) vs untreated eyes: pellet 20% squalamine
From the text: In determining whether a compound is antiangiogenic, the rabbit corneal micropocket assay is an accepted standard test. In this test, an incision is made in one rabbit cornea, and a stimulus is placed in the incision. The stimulus is used to induce blood vessel formation in the normally avascular corneal region. As one example, a solid tumor in a polymeric matrix can be placed in the cornea as the stimulus because the tumor will release a number of angiogenic growth factors to stimulate new capillary growth. The tumor-derived angiogenic growth factors stimulate the endothelial cells at the scleral junction in the eye to initiate blood vessel growth toward the stimulus. A second polymer pellet (e.g., an ethylene/vinyl acetate copolymer) is placed between the scleral junction and the stimulus. This polymer pellet is either empty (a negative control test pellet), or it contains a compound whose antiangiogenic characteristics are to be tested. The polymer pellet is used to provide a controlled release of the material to be studied. Because of the avascular cornea background in the rabbit cornea, one can visually assess the results qualitatively. In addition, the number of blood vessels can be counted and their length, etc., can be measured to provide a more quantitative evaluation of the results.
The VX2 rabbit carcinoma was implanted in 26 rabbit eyes, in the normally avascular corneal region, to act as an angiogenesis stimulus. […] The eyes were examined weekly using a slit lamp stereomicroscope for three weeks after tumor implantment, and the Angiogenesis Index (“AI”) was calculated (this calculation will be described in more detail below with reference to FIG. 8). […]
To provide a quantitative evaluation, the Angiogenesis Index (“AI”) of each eye was determined. […]
The vessel length (“Lvessel”) was then measured in each cornea. The vessel length is the length of the longest vessel measured from the cornea-scleral junction to the distal edge of the longest vessel growth. The Angiogenesis Index then is determined from these measurements by the following equation: [formula]

[4] = tested on: rat 9L glioma; experiment: Glioma lethality study, rat glioma implanted into rat brain; type: in vivo; settings: 20 mg/kg/day i.p. from three days after implantation
From the text: FIG. 10 illustrates survival test results using squalamine in a glioma lethality study with a rat 9L glioma introduced into the brains of healthy rats;
In view of these test results, applicants tested squalamine in an animal model for brain cancer. To test the effect of squalamine on tumors located in the brain, small sections (1 mm3) of existing rat gliomas were taken from rat flanks where they were being maintained and were implanted into the rat brains in two groups of rats. Thus, in this model, the tumors were viable when placed in the rat brain. Three days after implantation, and after some vasculature had developed, treatment with 20 mg/kg/day of squalamine (i.p.) was initiated in one group of rats. The control animals (“vehicle control” in FIG. 10) were given the carrier vehicle only (no squalamine), and the other animals were treated with squalamine (“Squalamine” in FIG. 10).

[5] = Squalamine toxicity test in rats; type: in vivo; settings: 20 mg/kg/day i.p. for more than 30 days; maintained up to 200 days
Method: A squalamine toxicity test was performed in another animal model. Conventional cytotoxic chemical compounds are quite toxic. […] For this reason, it is administered only one time to a patient. The use of BCNU is described on pages 304 and 305 of Calabresi in Medical Oncology, supra. In order to test the toxicity of squalamine, a group of rats was given a daily squalamine dose of 20 mg/kg/day (i.p.) for more than 30 days and maintained for up to 200 days following dosing.

[6] = tested on: C4-2 cells; experiment: C4-2 cell growth in vitro ([3H]-thymidine incorporation); type: cell-based, human
Method: The anti-proliferative effect of squalamine was evaluated in tissue culture by both crystal violet staining and [^3H]-thymidine incorporation, on the LNCaP/C4-2 human prostate cancer progression model. Developed by applicants' laboratory, this lineage-derived cell line recapitulates the progression of human neoplastic prostate disease from an androgen-dependent and minimally metastatic condition (LNCaP cells) to an androgen-independent (defined as being able to proliferate in castrate hosts) and highly aggressive state (C4-2 subline).

[7] = tested on: Calu-6; experiment: Calu-6 lung tumor xenograft with carboplatin; type: in vivo, nude BALBc mice; settings: carboplatin 60 mg/kg i.p. single dose, squalamine 20 mg/kg once daily for 5 days
Method: About 5×10^6 cells from each of two human lung tumor lines, H460 (a rapidly proliferating large cell carcinoma cell line, ATCC HTB-177) and Calu-6 (an anaplastic carcinoma, ATCC HTB-56), were inoculated subcutaneously in the right foreleg of nude BALBc mice. Once tumors were visible (3-5 days) with a mean volume of approximately 50-80 mm^3, mice were treated intraperitoneally with 60 mg/kg carboplatin (single dose) or 20 mg/kg/squalamine (once daily for 5 days) or a combination of carboplatin and squalamine. There were 8 mice per group. Tumor growth inhibition was scored by quantifying the size of tumors once control tumors reached a size of 1.0 gram and determining the ratio of mean treated tumor size to mean control tumor size (T/C). Tumor growth inhibition was then scored as 100% x [1-(T/C)]. A separate antitumor activity variable, tumor growth delay, was scored for the tumors by determining the length of time it required for the mean tumor size in a treatment group to reach a size of 500 mm^3 (B. A. Teicher et al., Anticancer Research 18, 2567-2574 (1998)). The tumor growth inhibition seen with carboplatin plus squalamine was greater than that seen with carboplatin or squalamine alone. The relative inactivity of squalamine as a single agent by this assay endpoint supports the idea that squalamine is synergistic with carboplatin in the inhibition of these two human lung tumor xenografts. Similarly, it was determined that squalamine enhanced the tumor growth delay caused by carboplatin by an enhancement factor of >2.3 (Table 7).

T1 sequence (P50482 whole entry): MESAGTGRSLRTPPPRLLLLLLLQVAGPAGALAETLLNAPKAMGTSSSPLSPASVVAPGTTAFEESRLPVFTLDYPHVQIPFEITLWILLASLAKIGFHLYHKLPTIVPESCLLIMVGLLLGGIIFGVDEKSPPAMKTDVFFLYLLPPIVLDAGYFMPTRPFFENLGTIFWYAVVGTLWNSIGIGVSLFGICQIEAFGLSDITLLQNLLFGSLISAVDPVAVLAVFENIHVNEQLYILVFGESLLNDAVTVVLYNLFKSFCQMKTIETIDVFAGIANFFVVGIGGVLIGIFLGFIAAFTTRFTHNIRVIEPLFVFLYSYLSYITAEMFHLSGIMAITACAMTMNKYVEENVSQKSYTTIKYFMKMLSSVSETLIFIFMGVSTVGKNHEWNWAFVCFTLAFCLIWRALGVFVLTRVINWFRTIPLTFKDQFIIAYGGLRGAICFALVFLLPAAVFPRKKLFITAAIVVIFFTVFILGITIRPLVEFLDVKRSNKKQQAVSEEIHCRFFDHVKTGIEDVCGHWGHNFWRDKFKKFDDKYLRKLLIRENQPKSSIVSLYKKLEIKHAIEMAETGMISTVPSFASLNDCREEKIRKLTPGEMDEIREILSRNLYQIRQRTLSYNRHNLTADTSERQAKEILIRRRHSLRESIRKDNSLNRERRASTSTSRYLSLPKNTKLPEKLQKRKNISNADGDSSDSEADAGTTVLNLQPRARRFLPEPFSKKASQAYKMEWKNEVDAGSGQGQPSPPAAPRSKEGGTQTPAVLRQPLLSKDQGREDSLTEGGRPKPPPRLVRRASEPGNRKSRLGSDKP

Q: With CC(C)[C@@H](CC[C@@H](C)[C@H]1CC[C@H]2[C@@H]3[C@H](O)C[C@H]4C[C@@H](NCCCNCCCCN)CC[C@]4(C)[C@H]3CC[C@]12C)OS(=O)(=O)O [Squalamine, squalamine] as the molecule, how does the “effect on rabbit NHE2” value [1] read?
A: not affected

Q: And the “effect of direct addition during measurement of exchanger activity” value [2]?
A: no effect

Q: And the “reduction of Angiogenesis Index (AI) vs untreated eyes” value ([3]; Day 14)?
A: 37%

Q: What about the “reduction of Angiogenesis Index (AI) vs untreated eyes” value ([3]; Day 21) of the same molecule?
A: 43%

Q: What about the “vasculature of tumors in sectioned corneas” value ([3]; histology after the test) of the same molecule?
A: essentially no vasculature associated with those tumors

Q: What about the “increase in mean survival time” value [4] of the same molecule?
A: 38%

Q: What about the mean survival time [4] of the same molecule?
A: 24.9 days

Q: And the “toxicity, health of animals” value [5]?
A: remained healthy

Q: And the “growth of C4-2 cells, squalamine by itself” value ([6]; no exogenous VEGF)?
A: nominal effect

Q: And the C4-2 proliferation ([6]; with addition of exogenous VEGF, to a greater extent than LNCaP)?
A: inhibited

Q: And the “Tumor Growth Inhibition (T/C)” value [7]?
A: 8%
